Measured values from patent US9290459B1, “Substituted bicyclic dihydropyrimidinones and their use as inhibitors of neutrophil elastase activity” (Boehringer Ingelheim International GmbH, priority 2013, dated 2016).
pEC50, pIC50: −log10 of the molar value. ≈ marks a conversion by molar mass, not a printed value. Read-outs that look alike come from different tables or passages of the source.

Key:
[1] = target: Human neutrophil elastase (Homo sapiens (Human), UniProt P08246); experiment: Human Neutrophil Elastase Assay; type: biochemical; settings: substrate MeOSuc-Ala-Ala-Pro-Val-AMC 250 μM, pH 7.5
Chain of Human neutrophil elastase (P08246 30-247): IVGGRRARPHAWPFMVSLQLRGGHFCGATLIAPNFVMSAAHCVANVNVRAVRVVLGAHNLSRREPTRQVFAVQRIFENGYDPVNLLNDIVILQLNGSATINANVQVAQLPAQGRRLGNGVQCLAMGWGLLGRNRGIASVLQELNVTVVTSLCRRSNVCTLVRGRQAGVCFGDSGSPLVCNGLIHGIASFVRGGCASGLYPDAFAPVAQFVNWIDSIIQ

Aqueous solubility = type: physicochemical; settings: McIlvaine buffer pH 6.8, 2.5% DMSO, 24 h shaking; for solubility at 24 h: McIlvaine buffer pH 6.8 with 2.5% DMSO, pH 6.8, aqueous buffer, kinetic from dmso stock
Protocol: Assay for Determination of Aqueous Solubility […] After 24 h of shaking, the solutions or suspensions are filtered and analyzed by LC-UV. The amount dissolved in buffer is compared to the amount dissolved in the acetonitrile/water (1/1) solution.

[2] = target: neutrophil elastase in human plasma (Homo sapiens (Human), UniProt P08246); experiment: Neutrophil elastase inhibitory activity in human plasma (zymosan-stimulated blood); type: biochemical
Chain of neutrophil elastase in human plasma (P08246 30-247): as above
Protocol: Assay for the Determination of Neutrophil Elastase Inhibitory Activity in Human Plasma
Citrated blood from human healthy donors is mixed with zymosan suspension and incubated at room temperature. This leads to the stimulation of neutrophils and the release of neutrophil elastase into the plasma. The stimulated blood is centrifuged to generate the neutrophil elastase enriched plasma.
Various concentrations of the neutrophil elastase inhibitor are incubated with plasma. […] A dose response curve is generated to calculate the EC50 of the inhibitor.

[3] = Metabolic stability with human liver microsomes; type: in vitro ADME; settings: for t1/2 INVITRO: pooled human liver microsomes, 1 mg/ml protein, 1 μM test compound, 37° C., NADPH; for half-life at 1 μM: human, microsomes, pH 7.6
Caco-2 cells = experiment: Drug transport across human Caco-2 cells; type: in vitro ADME; settings: for PEAB / PEBA: Caco-2 monolayers, pH 7.2, 37° C.; for PEAB: apical-to-basal; for PEBA: basal-to-apical; for Efflux ratio: PEBA/PEAB, Caco-2
human hepatocytes = experiment: Metabolic stability with human hepatocytes; type: in vitro ADME; settings: human hepatocyte suspension, 1 μM test compound, scaled with well stirred model
Protocol: Assay for the Determination of Metabolic Stability with Human Hepatocytes The metabolic degradation of the test compound is assayed in a human hepatocyte suspension. Human hepatocytes (typically cryopreserved) are incubated in an appropriate buffer system (e.g. […] Samples are transferred into acetonitrile and pelleted by centrifugation (5 min) The supernatant is transferred to a new 96-deepwell plate, evaporated under nitrogen and resuspended. The decline of parent compound is analyzed by LC-MS/MS.

[4] = Drug transport across human Caco-2 cells; type: in vitro ADME; settings: human; for Papp A→B at 10 µM / Papp B→A at 10 µM: Caco-2, pH 7.2, Caco-2 monolayers, pH 7.2, 37° C.; for Papp A→B at 10 µM: apical-to-basal, read-out: PEAB; for Papp B→A at 10 µM: basal-to-apical, read-out: PEBA; for efflux ratio at 10 μM: Caco-2, pH 7.2, PEBA/PEAB, Caco-2
[5] = human neutrophil elastase, read-out: IC50
[6] = neutrophil elastase enriched human plasma from zymosan-stimulated blood, read-out: EC50

Structure (SMILES) | solubility at 24 h (Aqueous solubility) [µg/mL] | CL (predicted human hepatic in vivo blood clearance) (human hepatocytes) [mL/min/kg] | pIC50 [1, 5] | half-life at 1 μM [3] [h] | Papp A→B at 10 µM [4] [×10⁻⁶ cm/s] | Papp B→A at 10 µM [4] [×10⁻⁶ cm/s] | further results
CN1C(=O)N(c2cccc(C(F)(F)F)c2)C2=C(C(=O)CC2)C1c1ccc(C#N)cc1[S+](C)[O-] (single isomer, unassigned) [Example 30A, 4-(3-Methyl-2,5-dioxo-1-(3-(trifluoromethyl)phenyl)-2,3,4,5,6,7-hexahydro-1H-cyclopenta[d]pyrimidin-4-yl)-3-(methylsulfinyl)benzonitrile] |  |  |  |  |  |  | pIC50 ([1]; IC50, human neutrophil elastase): 8.89; Aqueous solubility (Aqueous solubility): 51 µg/mL; pEC50 ([2]; EC50, neutrophil elastase enriched human plasma from zymosan-stimulated blood): 9.00; t1/2 INVITRO [3]: >2.17 h; PEAB (Caco-2 cells): 3.52 ×10⁻⁶ cm/s; PEBA (Caco-2 cells): 39 ×10⁻⁶ cm/s; Efflux ratio (Caco-2 cells): 11.1
CS(=O)(=O)c1cc(C#N)ccc1C1C2=C(CCC2=O)N(c2cccc(C(F)F)c2)C(=O)N1C(=O)NC1CC1 (stereo not drawn) [Example 53.3] | 34 (≈ 62.9 µM) | 0 |  |  |  |  | 
N#Cc1ccc(C2C3=C(CCC3=O)N(c3cccc(C(F)(F)F)c3)C(=O)N2CC(=O)N2CCC2)cc1 (stereo not drawn) [Example 6.3] |  | 4 |  |  |  |  | Aqueous solubility (Aqueous solubility): 121 µg/mL; t1/2 INVITRO [3]: >2.17 h
CCS(=O)(=O)c1cc(C#N)ccc1C1NC(=O)N(c2cccc(C(F)(F)F)c2)C2=C1C(=O)CC2 (stereo not drawn) [Example 14, 4-(2,5-Dioxo-1-(3-(trifluoromethyl)phenyl)-2,3,4,5,6,7-hexahydro-1H-cyclopenta[d]pyrimidin-4-yl)-3-(ethylsulfonyl)benzonitrile] | 45 (≈ 91.9 µM) | 4 | 8.33 | > 2.17 |  |  | 
N#Cc1ccc([C@@H]2C3=C(CCC3=O)N(c3cccc(C(F)(F)F)c3)C(=O)N2C(=O)NCCO)cc1 [Example 7.2A, (R)-4-(4-Cyanophenyl)-N-(2-hydroxyethyl)-2,5-dioxo-1-(3-(trifluoromethyl)phenyl)-4,5,6,7-tetrahydro-1H-cyclopenta[d]pyrimidine-3(2H)-carboxamide] | 72 (≈ 149 µM) | 0 |  | > 2.17 | 4.03 | 63.3 | 
N#Cc1ccc(C2C3=C(CCC3=O)N(c3cccc(C(F)(F)F)c3)C(=O)N2C(=O)NC2CCOCC2)cc1 (stereo not drawn) [Example 41.16] |  |  |  |  |  |  | t1/2 INVITRO [3]: >2.17 h; PEAB (Caco-2 cells): 58.9 ×10⁻⁶ cm/s; PEBA (Caco-2 cells): 57.7 ×10⁻⁶ cm/s; Efflux ratio (Caco-2 cells): 1.0
CS(=O)(=O)CCNC(=O)N1C(=O)N(c2cccc(C(F)(F)F)c2)C2=C(C(=O)CC2)C1c1ccc(C#N)cc1F (stereo not drawn) [Example 49.3] | 32 (≈ 56.7 µM) | 0 |  | > 2.17 |  |  | 
CS(=O)(=O)c1cc(C#N)ccc1[C@@H]1C2=C(CCC2=O)N(c2cccc(C(F)(F)F)c2)C(=O)N1CC#N [Example 23, (S)-4-(3-(Cyanomethyl)-2,5-dioxo-1-(3-(trifluoromethyl)phenyl)-2,3,4,5,6,7-hexahydro-1H-cyclopenta[d]pyrimidin-4-yl)-3-(methylsulfonyl)benzonitrile] | 15 (≈ 29.2 µM) | 0 | 8.47 | > 2.17 | 10.3 | 93.5 | pEC50 [2, 6]: > 9.00; efflux ratio at 10 μM [4]: 9.1
CCNC(=O)N1C(=O)N(c2cccc(C(F)F)c2)C2=C(C(=O)CC2)C1c1ccc(C#N)cc1 (stereo not drawn) [Example 52.2] | 16 (≈ 35.5 µM) | 3 | > 9.00 | > 2.17 | 70.8 | 80.3 | pEC50 [2, 6]: 9.00; efflux ratio at 10 μM [4]: 1.1
N#Cc1ccc([C@@H]2C3=C(CCC3=O)N(c3cccc(C(F)F)c3)C(=O)N2C(=O)NCCCO)cc1 [Example 52A, (R)-4-(4-Cyanophenyl)-1-(3-(difluoromethyl)phenyl)-N-(3-hydroxypropyl)-2,5-dioxo-4,5,6,7-tetrahydro-1H-cyclopenta[d]pyrimidine-3(2H)-carboxamide] | 88 (≈ 183 µM) | 8 | > 9.00 | > 2.17 |  |  | pEC50 [2, 6]: > 9.00
N#Cc1ccc(C2C3=C(CCC3=O)N(c3cccc(C(F)(F)F)c3)C(=O)N2C(=O)N[C@H]2COC[C@H]2O)cc1 (stereo partly drawn) [Example 42.6] | 67 (≈ 127 µM) | 5 |  |  |  |  | 
CS(=O)(=O)c1cc(C#N)ccc1C1NC(=O)N(c2cccc(C(F)F)c2)C2=C1C(=O)CC2 (stereo not drawn) [Example 15.4, 4-(1-(3-(difluoromethyl)phenyl)-2,5-dioxo-2,3,4,5,6,7-hexahydro-1H-cyclopenta[d]pyrimidin-4-yl)-3-(methylsulfonyl)benzonitrile] | 69 (≈ 151 µM) | 0 | 8.01 | > 2.17 |  |  | 
CN(C)C(=O)CN1C(=O)N(c2cccc(C(F)(F)F)c2)C2=C(C(=O)CC2)C1c1ccc(C#N)cc1 (stereo not drawn) [Example 6.2] |  | 6 |  |  |  |  | Aqueous solubility (Aqueous solubility): 77 µg/mL
N#Cc1ccc([C@@H]2C3=C(CCC3=O)N(c3cccc(C(F)(F)F)c3)C(=O)N2C(=O)N[C@H]2COC[C@@H]2O)cc1 [Example 45.5] | 56 (≈ 106 µM) | 0 |  | > 2.17 |  |  | 
CNC(=O)N1C(=O)N(c2cccc(C(F)(F)F)c2)C2=C(C(=O)CC2)C1c1ccc(C#N)cn1 (stereo not drawn) [Example 50.1] | 41 (≈ 90 µM) | 1 | 8.40 |  | 66.7 | 66.1 | pEC50 [2, 6]: 7.80; efflux ratio at 10 μM [4]: 1
CC(C)NC(=O)N1C(=O)N(c2cccc(C(F)F)c2)C2=C(C(=O)CC2)C1c1ccc(C#N)cc1S(C)(=O)=O (stereo not drawn) [Example 53.4] | 14 (≈ 25.8 µM) | 0 |  | > 2.17 | 9.85 | 94.4 | 
N#Cc1ccc(C2C3=C(CCC3=O)N(c3cccc(C(F)(F)F)c3)C(=O)N2C(=O)NC2(CO)CC2)cc1 (stereo not drawn) [Example 41.5] |  |  |  |  |  |  | Aqueous solubility (Aqueous solubility): 82 µg/mL; PEAB (Caco-2 cells): 8.85 ×10⁻⁶ cm/s; PEBA (Caco-2 cells): 77 ×10⁻⁶ cm/s; Efflux ratio (Caco-2 cells): 8.7
CNC(=O)N1C(=O)N(c2cccc(C(F)(F)F)c2)C2=C(C(=O)CC2)[C@H]1c1ccc(C#N)cc1 [Example 7.1A, (R)-4-(4-Cyanophenyl)-N-methyl-2,5-dioxo-1-(3-(trifluoromethyl)phenyl)-4,5,6,7-tetrahydro-1H-cyclopenta[d]pyrimidine-3(2H)-carboxamide] | 23 (≈ 50.6 µM) | 3 |  | > 2.17 | 72.7 | 68.1 | 
N#CCN1C(=O)N(c2cccc(C(F)(F)F)c2)C2=C(C(=O)CC2)C1c1ccc(C#N)cc1 (stereo not drawn) [Example 22, 4-(3-(Cyanomethyl)-2,5-dioxo-1-(3-(trifluoromethyl)phenyl)-2,3,4,5,6,7-hexahydro-1H-cyclopenta[d]pyrimidin-4-yl)benzonitrile] | 13 (≈ 29.8 µM) |  | 7.59 | > 2.17 | 36.5 | 54.5 | pEC50 [2, 6]: 7.64; efflux ratio at 10 μM [4]: 1.5
N#Cc1ccc(C2C3=C(CCC3=O)N(c3cccc(C(F)(F)F)c3)C(=O)N2C(=O)N[C@H]2CCC[C@@H]2O)cc1 (stereo partly drawn) [Example 42.4] | 21 (≈ 40 µM) | 0 |  | > 2.17 | 39.7 | 78 | efflux ratio at 10 μM [4]: 2
CN1C(=O)N(c2cccc(C(F)(F)F)c2)C2=C(C(=O)CC2)[C@H]1c1ccc(C#N)cc1S(C)(=O)=O [Example 25, (S)-4-(3-Methyl-2,5-dioxo-1-(3-(trifluoromethyl)phenyl)-2,3,4,5,6,7-hexahydro-1H-cyclopenta[d]pyrimidin-4-yl)-3-(methylsulfonyl)benzonitrile] | 62 (≈ 127 µM) | 2 | > 9.00 | > 2.17 | 56.7 | 74 | pEC50 [2, 6]: 9.00; efflux ratio at 10 μM [4]: 1.3
